Reference: patent US5780642A, “Imidazole derivatives as therapeutic agents” (KNOLL Aktiengesellschaft, priority 1993, dated 1998)
Counter-ions that a name gives are not always drawn. Like-named read-outs stand apart in the source and are kept apart here.

How the values were obtained:
[1] = tested on: Carrageenan-induced pleurisy (migrating leukocytes); assay: Carrageenan-induced pleurisy in rats; assay type: in vivo; conditions: rat, p.o. at time of challenge and 24h and 48h thereafter
Procedure: The most advantageous compounds of formula I were active in Tests A and B and also in the following test. Carrageenan-induced pleurisy in rats was carried out as described by Ackerman et al. J. Pharmacol. Exp. Therap. 1980, 215, 588-595. Migrating leukocytes were harvested by lavage of the thoracic cavity 72h after injection of 0.3 ml 1% λcarrageenan in sterile isotonic saline. Test compounds were administered p.o. at the time of challenge and 24h and 48 h thereafter.

[2] = tested on: Zymosan Stimulated Macrophages (arachidonic acid release); assay: Test A: Inhibition of Arachidonic Acid Release from Zymosan Stimulated Macrophages; assay type: cell-based, mouse (female MF1 mice); conditions: Mus musculus, Macrophage, read-out: Test A IC50
Procedure: Test A was carried out in the following way:
Inhibition of Arachidonic Acid Release from Zymosan Stimulated Macrophages
Female MF1 mice (weighing 20 to 25 g) were killed using a rising concentration of CO2. The mice were laid on their backs and the abdomens wiped with 70% alcohol. The skin was pulled back, exposing the peritoneal wall. Medium A (5 ml) (see below) was injected into the peritoneal cavity of each mouse followed by approximately 1 ml of air using a 20 ml syringe and a 21G×40 mm needle in order to form a suspension of macrophage cells. The medium and cells were then removed using a 19G×40 mm needle. The resulting suspension was returned to a sterile beaker kept on ice. The extracts from all the mice were pooled and this pooled cell suspension was counted using a Coulter counter and adjusted to a final cell count of 1-1.3×10^6 cells/ml prior to labelling with [^3 H]-arachidonic acid. Typically five mice provided sufficient cells for each multiwell plate.
Sufficient [^3 H]-arachidonic acid in ethanol to give a final concentration of 1.6 μCi/ml (equivalent to 40 μCi/plate) was blown to dryness under nitrogen. The arachidonic acid was then resuspended in 1 or 2 ml of the cell suspension which was then mixed with the remainder of the cell suspension in a centrifuge bottle. The labelled cell suspension was then plated out into sterile plastic 96 flat-bottomed well plates (250 μl per well) and incubated overnight at 37° C. in a moist atmosphere of 5% CO2, 95% air.
The following day, non-adherent cells were removed by washing 3 times with sterile phosphate buffered saline (PBS). The adherent peritoneal macrophages were then cultured for a further 24 hours in the presence or absence of drugs, in medium B (see below) at 37° in a 5% CO2 atmosphere in order to measure the effects of drugs on the spontaneous release of arachidonic acid in the absence of stimulus. After this incubation, supernatants were removed to give media 1 and stored in sealed multi-well plates at 4° C. prior to scintillation counting. Drugs which potentiated spontaneous release of arachidonic acid (125% of controls) were deemed to be toxic at the concentration at which this phenomenon occurred. The supernatants were replaced by fresh medium C containing fresh drug and a stimulus. Three drugs were tested at six concentrations (100, 50, 20, 10, 5 and 1 μM) in replicates of four on each plate. The other wells contained controls consisting of a positive control (e.g. dexamethasone), medium (B) only and medium C only.
Incubation was then continued for a further 5 hours, whereupon the supernatants were collected to give media 2 and the adherent cells washed with PBS. The cells were then lysed with 100 μl of 0.1% TRITON® X100 in a 0.1% solution of bovine serum albumin in 0.9% saline and mechanically disrupted to give cell lysates. These supernatants (media 2) and cell lysates (Cells) were also stored in sealed multi-well plates at 4° C. prior to scintillation counting. 200 μl aliquots of media, or 100 μl aliquots of cells were counted using 2 ml of OPTIPHASE "HIGH SAFE" (Trademark of LKB) as scintillant.
The percentage of arachidonic acid released was calculated using the mean values for each group of 4 wells in the following equation. [formula]
The value for the arachidonic acid release in the absence of stimulus (spontaneous, cpm of media 2) from cells which had been exposed to neither stimulus nor drug was subtracted from all equivalent values (cpm media 2, stimulated with or without drug) to give the net stimulated release. The percentage inhibition of arachidonic acid release caused by a drug may then be calculated using the following equation. [formula]
Compounds of formula I were tested at six concentrations (100, 50, 20, 10, 5 and 1 μM) and IC50 values calculated. Compounds with IC50 values≤100 μM are considered to be active. Advantageous compounds have an IC50 value<50 μM.
Medium A (for peritoneal lavage) […]

[3] = tested on: Carrageenan-induced rat paw oedema; assay: Test B: Carrageenan-induced rat paw oedema test; assay type: in vivo; conditions: 100 mg/kg oral; active = 20% or greater inhibition of paw oedema in at least two out of three tests
Procedure: Test B was carried out in the following way: Carrageenan-induced rat paw oedema test Female rats, weight range 125-150 g were fasted overnight. One of the hind legs of each animal was marked with a line at the connection between the cuboid/navicular and calcaneus/talus bones. Groups of six rats were orally dosed at 10 ml/kg, in random order, with a given dose of the test compound given as a solution or suspension in 10% (w/v) aqueous acacia solution. One hour after dosing, 0.1 ml of 1% (w/v) sterile carrageenan λ in normal saline was injected deeply into the plantar surface of the marked hind foot of each rat. The volume of the foot (up to the marked line) was measured immediately after injection using duplicate water displacement readings. Three hours after injection the foot volume was measured again and the percentage increase in foot volume relative to the initial reading was calculated. The increase in foot volume (i.e. the degree of oedema) in drug treated animals when compared with that in the drug untreated control gave the degree of inhibition of paw oedema by the drug. Compounds were considered to be active in this test if they produced a 20% or greater inhibition of paw oedema in at least two out of three tests after oral dosing at 100 mg/kg. Statistical significance was assessed using the Student's t test for single dose studies and Dunnett's test for multiple dose studies. More advantageous compounds were active in both Tests A and B.

[4] = inhibition of arachidonic acid release, zymosan stimulated mouse peritoneal macrophages, tested at 100, 50, 20, 10, 5 and 1 μM, ≤100 μM considered active

IC50 [2, 4] [µM]	Compound	activity in carrageenan-induced pleurisy at 10 mg/kg [1]	activity in Test B (inhibition of paw oedema) [3]	activity in carrageenan-induced pleurisy at 3 mg/kg or lower [1]	IC50 [2] [µM]
20	CC(C)(CNCCCn1ccnc1)Oc1ccc(Cl)cc1 [Example 1, 2-(4-chlorophenoxy)-3'-(imidazol-1-yl)-2-methyldipropylamine]	active	–	–	–
26	Cl.Cl.Clc1ccc(OCCNCCCn2ccnc2)cc1 [Example 2, N-[2-(4-chlorophenoxy)ethyl]-3-(imidazol-1-yl)propylamine dihydrochloride]	active	active	–	–
30	c1ccc(OCCNCCCn2ccnc2)cc1 [Example 3, 3-(Imidazol-1-yl)-N-(2-phenoxyethyl)propylamine]	–	active	–	–
29	CC(C)(CNCCCn1ccnc1)Oc1ccccc1Cl [Example 4, 2-(2-Chlorophenoxy)-3'-(imidazol-1-yl)-2-methyldipropylamine]	–	active	–	–
39	Cl.Cl.Fc1ccc(OCCNCCCn2ccnc2)cc1 [Example 7, N-[2-(4-Fluorophenoxy)ethyl]-3-(imidazol-1-yl)propylamine dihydrochloride]	–	active	–	–
27	CC(CNCCCn1ccnc1)Oc1ccc(Cl)cc1 (stereo not drawn) [Example 15, 2-(4-chlorophenoxy)-3'-(imidazol-1-yl)dipropylamine dihydrochloride]	active	active	–	–
15	CCCCCCNC(=O)Cc1ccc(C(C)(C)NCCCn2ccnc2)cc1 [Example 29, N-Hexyl-4-{1-[3-(imidazol-1-yl)propylamino]-1-methylethyl}phenylacetamide]	active	–	–	–
92	CC(C)(NCC(O)Cn1ccnc1)c1ccc(Cl)cc1 (stereo not drawn) [Example 43, 1-[1-(4-chlorophenyl)-1-methylethylamino]-3-(imidazol-1-yl)propan-2-ol]	–	–	active	–
–	CC(C)(NCCCn1ccnc1)c1ccc(CCNS(=O)(=O)c2ccccc2)cc1 [Example 56, N-[2-(4-{1-[3-(imidazol-1-yl)propylamino]-1-methylethyl}phenyl)ethyl]-benzenesulphonamide]	active	–	–	8
17	CCC(CC)(NCCCn1cnc(CCNC(=O)c2ccccc2)c1)c1ccccc1 [Example 60, N-(2-{1-[3-(1-ethyl-1-phenylpropylamino)propyl]imidazol-4-yl}ethyl)benzamide]	–	–	active	–
32	CN(CCCn1ccnc1)CCOc1ccc(Cl)cc1 [Example 64, N-[2-(4-chlorophenoxy)ethyl]-3-(imidazol-1-yl)-N-methylpropylamine]	active	active	–	–
47	CC(C)(NCCc1c[nH]cn1)c1ccc(Cl)cc1 [Example 85, 1-(4-chlorophenyl)-2'-(imidazol-4(5)-yl)-1-methyldiethylamine]	active	–	–	–
3	CC(C)(NCCCc1nccn1Cc1ccccc1)c1ccc(Cl)cc1 [Example 86, 3-(1-benzylimidazol-2-yl)-N-[1-(4-chlorophenyl)-1-methylethyl]propylamine]	–	–	–	–
28	Cl.Cl.Clc1ccc2c(c1)CCC2NCCCn1ccnc1 (stereo not drawn) [Example 88, N-(5-chloroindan-1-yl)-3-(imidazol-1-yl)propylamine dihydrochloride]	active	active	–	–
100	COc1ccc(OCC(C)(C)NCCCn2ccnc2)cc1 [Example 108, N-[2-(4-methoxyphenoxy)-1,1-dimethylethyl]-3-(imidazol-1-yl)propylamine dihydrochloride hydrate]	–	–	–	–
33	CC(C)(COc1ccc(C2=NCCS2)cc1)NCCCn1ccnc1 [Example 109, N-[1,1-dimethyl-2-[4-(4,5-dihydrothiazol-2-yl)phenoxy]ethyl}-3-(imidazol-1-yl)propylamine dimaleate]	–	–	–	–
